{"source": "paper PMC9687798", "about": "“Atypical Substrates of the Organic Cation Transporter 1” (Biomolecules, 2022)", "key": {"OCT1*3 (R61C)": {"target": "T1, OCT1*3 (R61C) (Homo sapiens, UniProt O15245, R61C)", "T1 construct": "expressed in transfected cells", "T1 sequence (O15245 1-554 R61C)": "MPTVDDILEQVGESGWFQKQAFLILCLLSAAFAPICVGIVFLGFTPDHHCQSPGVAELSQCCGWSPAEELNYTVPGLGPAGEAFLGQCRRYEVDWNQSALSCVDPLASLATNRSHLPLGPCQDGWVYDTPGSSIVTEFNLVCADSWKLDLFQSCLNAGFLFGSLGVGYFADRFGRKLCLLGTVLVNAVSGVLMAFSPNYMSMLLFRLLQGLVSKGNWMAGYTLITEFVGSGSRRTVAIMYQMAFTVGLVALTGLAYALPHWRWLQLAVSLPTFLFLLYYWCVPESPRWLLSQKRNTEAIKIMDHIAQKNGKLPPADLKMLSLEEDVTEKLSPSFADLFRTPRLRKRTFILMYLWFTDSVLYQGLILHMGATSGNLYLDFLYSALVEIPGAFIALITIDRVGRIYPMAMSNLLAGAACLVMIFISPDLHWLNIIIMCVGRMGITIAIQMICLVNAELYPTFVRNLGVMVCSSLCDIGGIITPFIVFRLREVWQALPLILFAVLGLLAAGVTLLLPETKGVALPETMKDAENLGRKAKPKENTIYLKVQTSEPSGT", "assay": "Cellular uptake by HEK293 cells overexpressing OCT1*3", "type": "cell-based", "settings": "for uptake by OCT1*3 in comparison to OCT1*1: 1 µM substance; for uptake of prostaglandins by OCT1*3 in comparison to wild-type: 1, 10 and 100 µM, 120 s", "procedure": "(§1) The transport experiments were performed using HEK293 cells that overexpress human OCT1*1 (wild-type), mutant human OCT1 D474N, variant human OCT1*2 (M420del) and OCT1*3 (R61C), wild-type human OCT2, and OCT3 after stable transfection. The wild-type cell lines of OCT1 and OCT2, as well as the variant cell lines OCT1*2 and *3, were generated using the Flp-In system (Thermo Fisher Scientific, Darmstadt, Germany) as described in previous publications. The cell line overexpressing OCT3 was a kind gift from Dr. Koepsell and Dr. Gorbulev (University of Würzburg, Germany). Cells transfected with the empty pcDNA5/FRT vector were used for the transport experiments as a control cell line. All cells were cultured approximately up to passage 30.\n(§2) Forty-eight hours before the transport experiments, 600,000 cells were plated on 12-well plates pre-coated with poly-D-lysine and incubated at 37 °C with 5% CO2. The prepared 12-well plate with cells was positioned on a heating plate pre-warmed to 37 °C. After removing the medium, the cells were washed with 37 °C HBSS+ (10 mM HEPES in Hank’s balanced salt solution, pH 7.4). Then, one pre-defined concentration of a substrate was added to each well. The incubation period was stopped by adding 2 mL of 4 °C HBSS+ and removing the cells from the heating plate. The cells were washed twice with 4 °C HBSS+. For cell lysis, the cells were incubated for 15 min with 500 µL of 80% acetonitrile (LGC Standards, Wesel, Germany), which contained a respective internal standard (Table 1).\nFor time-dependent transport, the cells were incubated with 1 µM of the substance for 15 to 240 s to determine the linear uptake range ≥ 15 s. For concentration-dependent transport, the cells were incubated with defined substrate concentrations (0.1, 1, 10, 30, 100, 300, 600, 1000 µM) for the respective pre-defined incubation times. […]; 100 µM) and pre-defined incubation times. The uptake by a transporter was normalised to the uptake by empty vector-transfected cells. […] The results of transport experiments were normalized to the total protein concentration per well. Total protein quantification was performed using a bicinchoninic acid assay with bovine serum albumin as standard.\nThe ratios of cellular uptake were calculated by dividing the total uptake of transporter-overexpressing cells by the total uptake into empty vector transfected cells. The concentration-dependent cellular net uptake was used for analysis of transport kinetics by subtracting for each substrate concentration the uptake of empty vector-transfected cells from the uptake of transporter-overexpressing cells. The transport kinetic parameters Vmax and KM were determined with non-linear regression by using the Michaelis–Menten equation for net uptake data and by using the Michaelis–Menten equation extended with a linear term for total uptake data (GraphPad Prism 5.01, GraphPad software, LA Jolla, CA, USA). The intrinsic clearance Clint was expressed with the ratio of Vmax and KM."}, "[1]": {"target": "T2, variant human OCT1*2 (M420del) (Homo sapiens, UniProt O15245, DEL420-420)", "T2 construct": "expressed in transfected cells", "T2 sequence (O15245 with tags, fused parts or gaps DEL420-420)": "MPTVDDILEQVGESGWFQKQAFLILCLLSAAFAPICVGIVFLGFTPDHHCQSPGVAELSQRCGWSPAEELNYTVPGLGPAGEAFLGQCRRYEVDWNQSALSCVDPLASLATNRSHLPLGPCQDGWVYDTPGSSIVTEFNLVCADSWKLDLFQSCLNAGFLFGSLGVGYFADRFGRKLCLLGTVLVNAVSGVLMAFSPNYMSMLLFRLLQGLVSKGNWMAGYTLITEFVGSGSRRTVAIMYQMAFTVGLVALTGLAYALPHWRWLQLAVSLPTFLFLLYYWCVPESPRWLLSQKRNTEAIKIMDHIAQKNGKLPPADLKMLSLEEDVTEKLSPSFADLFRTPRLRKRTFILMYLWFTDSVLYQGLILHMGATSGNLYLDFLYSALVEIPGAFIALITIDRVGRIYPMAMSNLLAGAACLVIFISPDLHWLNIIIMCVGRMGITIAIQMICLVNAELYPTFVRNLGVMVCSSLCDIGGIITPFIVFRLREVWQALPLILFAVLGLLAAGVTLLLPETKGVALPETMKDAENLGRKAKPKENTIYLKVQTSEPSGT", "assay": "Cellular uptake by HEK293 cells overexpressing OCT1*2", "type": "cell-based", "settings": "for uptake by OCT1*2 in comparison to OCT1*1: 1 µM substance; for uptake of prostaglandins by OCT1*2 in comparison to wild-type: 1, 10 and 100 µM, 120 s", "procedure": "as §1, with “The” for “The transport experiments were performed using HEK293 cells that overexpress human OCT1*1 (wild-type), mutant human OCT1 D474N, variant human OCT1*2 (M420del) and OCT1*3 (R61C), wild-type human OCT2, and OCT3 after stable transfection. The”\nas §2\nFor concentration-dependent transport, the cells were incubated with defined substrate concentrations (0.1, 1, 10, 30, 100, 300, 600, 1000 µM) for the respective pre-defined incubation times. […] The uptake by a transporter was normalised to the uptake by empty vector-transfected cells. […] The results of transport experiments were normalized to the total protein concentration per well. Total protein quantification was performed using a bicinchoninic acid assay with bovine serum albumin as standard.\nThe ratios of cellular uptake were calculated by dividing the total uptake of transporter-overexpressing cells by the total uptake into empty vector transfected cells. The concentration-dependent cellular net uptake was used for analysis of transport kinetics by subtracting for each substrate concentration the uptake of empty vector-transfected cells from the uptake of transporter-overexpressing cells. […] The intrinsic clearance Clint was expressed with the ratio of Vmax and KM."}}}
{"smiles": "Nc1ccn([C@H]2CC[C@@H](CO)O2)c(=O)n1", "note": "[Zalcitabine, zalcitabine]", "values": [{"measurement": "uptake by OCT1*3 in comparison to OCT1*1", "setting": "OCT1*3 (R61C)", "value": "reduction in uptake"}, {"measurement": "uptake by OCT1*2 in comparison to OCT1*1", "setting": "[1]", "value": "reduction in uptake"}]}
{"smiles": "COc1cc(Cc2cnc(N)nc2N)cc(OC)c1OC", "note": "[Trimethoprim, trimethoprim]", "values": [{"measurement": "uptake by OCT1*3 in comparison to OCT1*1", "setting": "OCT1*3 (R61C)", "value": "reduction in uptake"}, {"measurement": "uptake by OCT1*2 in comparison to OCT1*1", "setting": "[1]", "value": "reduction in uptake"}]}
{"smiles": "Nc1nc(=O)n([C@@H]2CS[C@H](CO)O2)cc1F", "note": "[Emtricitabine, emtricitabine]", "values": [{"measurement": "uptake by OCT1*3 in comparison to OCT1*1", "setting": "OCT1*3 (R61C)", "value": "reduction in uptake"}, {"measurement": "uptake by OCT1*2 in comparison to OCT1*1", "setting": "[1]", "value": "reduction in uptake"}]}
{"smiles": "N=C(N)c1ccc(OCCCCCOc2ccc(C(=N)N)cc2)cc1", "note": "[Pentamidine, pentamidine]", "values": [{"measurement": "uptake by OCT1*3 in comparison to OCT1*1", "setting": "OCT1*3 (R61C)", "value": "to a small extent"}, {"measurement": "uptake by OCT1*2 in comparison to OCT1*1", "setting": "[1]", "value": "to a small extent"}]}
{"smiles": "CCCCC[C@H](O)/C=C/[C@@H]1[C@@H](C/C=C\\CCCC(=O)O)[C@@H](O)C[C@H]1O", "note": "[Prostaglandin F2α, prostaglandin F2α]", "values": [{"measurement": "uptake of prostaglandins by OCT1*3 in comparison to wild-type", "setting": "OCT1*3 (R61C)", "value": "reduced to the level of the control cell line"}, {"measurement": "uptake of prostaglandins by OCT1*2 in comparison to wild-type", "setting": "[1]", "value": "reduced to the level of the control cell line"}]}
{"smiles": "CCCCC[C@H](O)/C=C/[C@H]1[C@H](O)CC(=O)[C@@H]1C/C=C\\CCCC(=O)O", "note": "[Prostaglandin E2, prostaglandin E2]", "values": [{"measurement": "uptake of prostaglandins by OCT1*3 in comparison to wild-type", "setting": "OCT1*3 (R61C)", "value": "reduced to the level of the control cell line"}, {"measurement": "uptake of prostaglandins by OCT1*2 in comparison to wild-type", "setting": "[1]", "value": "reduced to the level of the control cell line"}]}
